Reference: patent US20070049593A1 (priority 2004, published 2007)
Where a name gives a salt, the structure may show the parent alone.

The compounds below were run against T1, HCV polymerase (Hepatitis C virus genotype 1b, UniProt P26663) (assay: biochemical).
T1 construct: a region encoding NS5B (J Virol 1991 March, 65(3), 1105-13, 544 amino acids after deletion of 47 amino acids on the C-terminal); 6xHis (C); made in house; host or cells: Escherichia coli
Parameters: species or system HCV BK strain
How it was run: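 Recombinant HCV BK-strain NS5B (C-terminal 47 aa deleted, His6-tagged, E. coli), 0.5 μg/ml, run with 5 μg/ml in vitro-transcribed RNA template (polyU/3′X), ATP/GTP/CTP 50 μM, UTP 2 μM plus [3H]UTP, pH 7.5, 25° C, 90 min. TCA-precipitated RNA counted by scintillation; IC50 from activity with vs without compound.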

T1 sequence (P26663 2420-2963): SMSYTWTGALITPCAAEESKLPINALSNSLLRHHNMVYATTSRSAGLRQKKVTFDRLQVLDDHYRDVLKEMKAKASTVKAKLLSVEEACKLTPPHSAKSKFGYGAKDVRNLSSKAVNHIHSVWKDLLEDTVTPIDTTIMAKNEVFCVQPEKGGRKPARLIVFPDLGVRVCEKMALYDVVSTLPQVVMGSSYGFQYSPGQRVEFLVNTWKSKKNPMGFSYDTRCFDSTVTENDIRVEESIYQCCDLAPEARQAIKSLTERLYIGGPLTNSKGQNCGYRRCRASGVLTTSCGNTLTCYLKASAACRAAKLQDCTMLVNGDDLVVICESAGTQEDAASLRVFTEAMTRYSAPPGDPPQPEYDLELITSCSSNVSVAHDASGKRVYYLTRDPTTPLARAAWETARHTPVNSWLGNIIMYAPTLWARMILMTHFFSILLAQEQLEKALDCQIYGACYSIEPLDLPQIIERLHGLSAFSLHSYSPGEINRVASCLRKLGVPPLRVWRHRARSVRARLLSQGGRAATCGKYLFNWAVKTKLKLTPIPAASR

`CCOCC[C@@H]1CCCN(CCN2CCn3c(c(C4CCCCC4)c4ccc(C(=O)O)cc43)-c3ccc(OCC)cc32)C1` [Example 1-515, 13-cyclohexyl-3-ethoxy-5-{2-[(S)-3-(2-ethoxyethyl)piperidin-1-yl]ethyl}-6,7-dihydro-5H-benzo[5,6][1,4]diazepino[7,1-a]indole-10-carboxylic acid dihydrochloride] and `COCC[C@@H]1CCCN(CCN2CCn3c(c(C4CCCCC4)c4ccc(C(=O)O)cc43)-c3ccc(OC(F)(F)F)cc32)C1` [Example 1-523, 13-cyclohexyl-5-{2-[(S)-3-(2-methoxyethyl)piperidin-1-yl]ethyl}-3-trifluoromethoxy-6,7-dihydro-5H-benzo[5,6][1,4]diazepino[7,1-a]indole-10-carboxylic acid dihydrochloride] cannot be ordered by IC50: less than 0.1 µM for the first, less than 0.1 µM for the second.

Compared with `Cc1ccc2c(c1)N(C)CCn1c-2c(C2CCCCC2)c2ccc(S(N)(=O)=O)cc21` [Example 1-517, 13-cyclohexyl-3,5-dimethyl-6,7-dihydro-5H-benzo[5,6][1,4]diazepino[7,1-a]indole-10-sulfonamide], `CC(=O)NS(=O)(=O)c1ccc2c(C3CCCCC3)c3n(c2c1)CCN(CCN1CCCCC1)c1cc(C)ccc1-3` [Example 1-520, N-acetyl-13-cyclohexyl-3-methyl-5-[2-(piperidin-1-yl)ethyl]-6,7-dihydro-5H-benzo[5,6][1,4]diazepino[7,1-a]indole-10-sulfonamide dihydrochloride] is lower in IC50: 0.1 to 1 µM for the first, less than 0.1 µM for the second.

`COC(=O)N1CCCN(CCN2CCn3c(c(C4CCCCC4)c4ccc(C(=O)O)cc43)-c3ccc(C)cc32)CC1` [Example 1-518, 13-cyclohexyl-5-[2-(4-methoxycarbonyl-1,4-diazepan-1-yl)ethyl]-3-methyl-6,7-dihydro-5H-benzo[5,6][1,4]diazepino[7,1-a]indole-10-carboxylic acid dihydrochloride] and `COC1CCCN(CCN2CCn3c(c(C4CCCCC4)c4ccc(C(=O)O)cc43)-c3ccc(C)cc32)CC1` (stereo not shown) [Example 1-525, 13-cyclohexyl-5-[2-(4-methoxyazepan-1-yl)ethyl]-3-methyl-6,7-dihydro-5H-benzo[5,6][1,4]diazepino[7,1-a]indole-10-carboxylic acid dihydrochloride] cannot be ordered by IC50: less than 0.1 µM for the first, less than 0.1 µM for the second.

`O=C1CCN(CCN2CCn3c(c(C4CCCCC4)c4ccc(C(=O)O)cc43)-c3ccccc32)CCN1` [Example 1-519, 13-cyclohexyl-5-[2-(5-oxo-1,4-diazepan-1-yl)ethyl]-6,7-dihydro-5H-benzo[5,6][1,4]diazepino[7,1-a]indole-10-carboxylic acid dihydrochloride] and `Cc1ccc2c(c1)N(CCN1CCC(=O)N(C)CC1)CCn1c-2c(C2CCCCC2)c2ccc(C(=O)O)cc21` [Example 1-526, 13-cyclohexyl-3-methyl-5-[2-(4-methyl-5-oxo-1,4-diazepan-1-yl)ethyl]-6,7-dihydro-5H-benzo[5,6][1,4]diazepino[7,1-a]indole-10-carboxylic acid dihydrochloride] cannot be ordered by IC50: less than 0.1 µM for the first, less than 0.1 µM for the second.

`Cc1ccc2c(c1)N(CCCN(C(C)C)C(C)C)CCn1c-2c(C2CCCCC2)c2ccc(C(=O)O)cc21` [Example 1-521, 13-cyclohexyl-5-(3-diisopropylaminopropyl)-3-methyl-6,7-dihydro-5H-benzo[5,6][1,4]diazepino[7,1-a]indole-10-carboxylic acid dihydrochloride] and `CCN(CCCN1CCn2c(c(C3CCCCC3)c3ccc(C(=O)O)cc32)-c2ccc(C)cc21)C(C)C` [Example 1-524, 13-cyclohexyl-5-[3-(N-ethyl-N-isopropylamino)propyl]-3-methyl-6,7-dihydro-5H-benzo[5,6][1,4]diazepino[7,1-a]indole-10-carboxylic acid dihydrochloride] cannot be ordered by IC50: less than 0.1 µM for the first, less than 0.1 µM for the second.

`O=C(O)c1ccc2c(C3CCCCC3)c3n(c2c1)CCN(CCN1CCCCC1)c1cc(OC(F)(F)F)ccc1-3` [Example 1-522, 13-cyclohexyl-5-[2-(piperidin-1-yl)ethyl]-3-trifluoromethoxy-6,7-dihydro-5H-benzo[5,6][1,4]diazepino[7,1-a]indole-10-carboxylic acid dihydrochloride] and `Cc1ccc2c(c1)N(CCN1CCC[C@@H](C(C)(C)O)C1)CCn1c-2c(C2CCCCC2)c2ccc(C(=O)O)cc21` [Example 1-533, 13-cyclohexyl-5-{2-[(R)-3-(1-hydroxy-1-methylethyl)piperidin-1-yl]ethyl}-3-methyl-6,7-dihydro-5H-benzo[5,6][1,4]diazepino[7,1-a]indole-10-carboxylic acid dihydrochloride] cannot be ordered by IC50: less than 0.1 µM for the first, less than 0.1 µM for the second.

`Cc1ccc2c(c1)N(CCN1CCC[C@@H](CC(=O)N(C)C)C1)CCn1c-2c(C2CCCCC2)c2ccc(C(=O)O)cc21` [Example 1-527, 13-cyclohexyl-5-{2-[(S)-3-(dimethylcarbamoylmethyl)piperidin-1-yl]ethyl}-3-methyl-6,7-dihydro-5H-benzo[5,6][1,4]diazepino[7,1-a]indole-10-carboxylic acid dihydrochloride] and `Cc1ccc2c(c1)N(CCN1CCC[C@@H](CC(C)(C)O)C1)CCn1c-2c(C2CCCCC2)c2ccc(C(=O)O)cc21` [Example 1-529, 13-cyclohexyl-5-{2-[(S)-3-(2-hydroxy-2-methylpropyl)piperidin-1-yl]ethyl}-3-methyl-6,7-dihydro-5H-benzo[5,6][1,4]diazepino[7,1-a]indole-10-carboxylic acid dihydrochloride] cannot be ordered by IC50: less than 0.1 µM for the first, less than 0.1 µM for the second.

`COCCOC[C@@H]1CCCN(CCN2CCn3c(c(C4CCCCC4)c4ccc(C(=O)O)cc43)-c3ccc(C)cc32)C1` [Example 1-528, 13-cyclohexyl-5-{2-[(R)-3-(2-methoxyethoxymethyl)piperidin-1-yl]ethyl}-3-methyl-6,7-dihydro-5H-benzo[5,6][1,4]diazepino[7,1-a]indole-10-carboxylic acid dihydrochloride] and `COCCN1CCCC(CCN2CCn3c(c(C4CCCCC4)c4ccc(C(=O)O)cc43)-c3ccc(Cl)cc32)C1` (stereo not shown) [Example 1-534, 3-chloro-13-cyclohexyl-5-{2-[1-(2-methoxyethyl)piperidin-3-yl]ethyl}-6,7-dihydro-5H-benzo[5,6][1,4]diazepino[7,1-a]indole-10-carboxylic acid dihydrochloride] cannot be ordered by IC50: less than 0.1 µM for the first, less than 0.1 µM for the second.

`COC[C@@H]1CCCN(CCN2CCn3c(c(C4CCCCC4)c4ccc(C(=O)O)cc43)-c3cc(F)c(F)cc32)C1` [Example 1-530, 13-cyclohexyl-2,3-difluoro-5-[2-7((R)-3-methoxymethylpiperidin-1-yl)ethyl]-6,7-dihydro-5H-benzo[5,6][1,4]diazepino[7,1-a]indole-10-carboxylic acid dihydrochloride] and `Cc1ccc2c(c1)N(CCN1CCOCC(C)C1)CCn1c-2c(C2CCCCC2)c2ccc(C(=O)O)cc21` (stereo not shown) [Example 1-532, 13-cyclohexyl-3-methyl-5-[2-(6-methyl-1,4-oxazepan-4-yl)ethyl]-6,7-dihydro-5H-benzo[5,6][1,4]diazepino[7,1-a]indole-10-carboxylic acid dihydrochloride] cannot be ordered by IC50: less than 0.1 µM for the first, less than 0.1 µM for the second.

With `CCN(CCCOC)CCN1CCn2c(c(C3CCCCC3)c3ccc(C(=O)O)cc32)-c2ccc(C)cc21` [Example 1-531, 13-cyclohexyl-5-{2-[N-ethyl-N-(3-methoxypropyl)amino]ethyl}-3-methyl-6,7-dihydro-5H-benzo[5,6][1,4]diazepino[7,1-a]indole-10-carboxylic acid dihydrochloride] the IC50 was less than 0.1 µM.
